Values after ≈ are worked out from the molar mass of the structure shown. Active and inactive are the calls of the source. The rule behind the calls is not given here.
What was measured:
[1] = Antioxidant activity assessed as inhibition of phenazine methosulphate-NADH coupling reaction-induced superoxide anion production at 60 ug/ml; type: functional; parameters: scale not given: the % may be the effect or the level left
[2] = Antioxidant activity assessed as hydrogen peroxide scavenging activity at 60 ug/ml by spectrophotometry; type: functional
[3] = system: Radical scavenging activity; assay: Antioxidant activity assessed as DPPH radical scavenging activity; type: functional
[4] = system: Klebsiella pneumoniae; assay: Antibacterial activity against Klebsiella pneumoniae MTCC 618 after 48 hrs by microdilution method; type: functional; conditions: MTCC 618, 48 h
[5] = system: Escherichia coli; assay: Antibacterial activity against Escherichia coli after 48 hrs by microdilution method; type: functional
[6] = system: Staphylococcus aureus; assay: Antibacterial activity against Staphylococcus aureus ATCC 29737 after 48 hrs by microdilution method; type: functional; conditions: ATCC 29737, 48 h
[7] = system: Streptococcus pyogenes; assay: Antibacterial activity against Streptococcus pyogenes NCIM 2608 after 48 hrs by microdilution method; type: functional; conditions: NCIM 2608, 48 h
[8] = system: Bacillus subtilis; assay: Antibacterial activity against Bacillus subtilis NCIM 2010 by microdilution method; type: functional
[9] = system: Escherichia coli; assay: Antibacterial activity against Escherichia coli at 10 ug/ml after 48 hrs by agar well diffusion method; conditions: read-out: DIZ
[10] = system: Pseudomonas aeruginosa; assay: microbe, parasite or virus in culture; conditions: ATCC 20852, 48 h, read-out: DIZ
Description: Antibacterial activity against Pseudomonas aeruginosa ATCC 20852 at 10 ug/ml after 48 hrs by agar well diffusion method

[11] = system: Klebsiella pneumoniae; assay: microbe, parasite or virus in culture; conditions: MTCC 618, 48 h, read-out: DIZ
Description: Antibacterial activity against Klebsiella pneumoniae MTCC 618 at 10 ug/ml after 48 hrs by agar well diffusion method

[12] = system: Staphylococcus aureus; assay: microbe, parasite or virus in culture; conditions: ATCC 29737, 48 h, read-out: DIZ
Description: Antibacterial activity against Staphylococcus aureus ATCC 29737 at 10 ug/ml after 48 hrs by agar well diffusion method

[13] = system: Streptococcus pyogenes; assay: microbe, parasite or virus in culture; conditions: NCIM 2608, 48 h, read-out: DIZ
Description: Antibacterial activity against Streptococcus pyogenes NCIM 2608 at 10 ug/ml after 48 hrs by agar well diffusion method

[14] = system: Bacillus subtilis; assay: microbe, parasite or virus in culture; conditions: NCIM 2010, 48 h, read-out: DIZ
Description: Antibacterial activity against Bacillus subtilis NCIM 2010 at 10 ug/ml after 48 hrs by agar well diffusion method

[15] = system: Rattus norvegicus; assay: Wound healing activity in Wistar albino rat dorsal back excision wound model assessed as wound closure applied topically as cream base ointment over 100/500 mm'2 scar measured after 4 days; type: functional
[16] = system: Rattus norvegicus; assay: Wound healing activity in Wistar albino rat dorsal back excision wound model assessed as wound closure applied topically as cream base ointment over 100/500 mm'2 scar measured after 8 days; type: functional
[17] = system: Rattus norvegicus; assay: Wound healing activity in Wistar albino rat dorsal back excision wound model assessed as wound closure applied topically as cream base ointment over 100/500 mm'2 scar measured after 12 days; type: functional
[18] = system: Rattus norvegicus; assay: Wound healing activity in Wistar albino rat dorsal back excision wound model assessed as wound closure applied topically as cream base ointment over 100/500 mm'2 scar measured after 16 days; type: functional
[19] = system: Rattus norvegicus; assay: Wound healing activity in Wistar albino rat dorsal back excision wound model assessed as epithelization period applied topically as cream base ointment over 100/500mm'2 scar; type: functional
[20] = system: Rattus norvegicus; assay: Wound healing activity in Wistar albino rat dorsal back incision wound model assessed as tensile strength applied topically as cream base ointment over 100/500 mm'2 scar by tensiometry; type: functional
[21] = system: Pseudomonas aeruginosa; assay: Antibacterial activity against Pseudomonas aeruginosa ATCC 20852 after 48 hrs by microdilution method; type: functional; conditions: ATCC 20852, 48 h
[22] = system: Pseudomonas aeruginosa; assay: Antibacterial activity against Pseudomonas aeruginosa ATCC 20852 at 10 mg/ml after 48 hrs by agar well diffusion method; type: functional; conditions: ATCC 20852, 48 h, read-out: DIZ
[23] = system: Klebsiella pneumoniae; assay: Antibacterial activity against Klebsiella pneumoniae MTCC 618 at 10 mg/ml after 48 hrs by agar well diffusion method; type: functional; conditions: MTCC 618, 48 h, read-out: DIZ
[24] = system: Escherichia coli; assay: Antibacterial activity against Escherichia coli at 10 mg/ml after 48 hrs by agar well diffusion method; type: functional; conditions: read-out: DIZ
[25] = system: Staphylococcus aureus; assay: Antibacterial activity against Staphylococcus aureus ATCC 29737 at 10 mg/ml after 48 hrs by agar well diffusion method; type: functional; conditions: ATCC 29737, 48 h, read-out: DIZ
[26] = system: Streptococcus pyogenes; assay: Antibacterial activity against Streptococcus pyogenes NCIM 2608 at 10 mg/ml after 48 hrs by agar well diffusion method; type: functional; conditions: NCIM 2608, 48 h, read-out: DIZ
[27] = system: Bacillus subtilis; assay: Antibacterial activity against Bacillus subtilis NCIM 2010 at 10 mg/ml after 48 hrs by agar well diffusion method; type: functional; conditions: NCIM 2010, 48 h, read-out: DIZ
[28] = system: Nucleic Acid; assay: Binding affinity to DNA assessed as reduction of Uv-vis spectra absorption at 293 nm wavelength at 0.5 uM by DNA intercalation assay; type: nucleic-acid assay; parameters: scale not given: the % may be the effect or the level left
[29] = system: Nucleic Acid; assay: Intrinsic binding affinity to DNA assessed as hypochromism by absorption spectral analysis; type: nucleic-acid assay
[30] = system: Calf thymus DNA; assay: Binding affinity to calf thymus DNA assessed as melting temperature; type: nucleic-acid assay; conditions: Bos taurus
[31] = system: Calf thymus DNA; assay: Binding affinity to calf thymus DNA assessed as increase in viscosity at 100 uM; type: nucleic-acid assay; conditions: Bos taurus
[32] = Antioxidant activity assessed as increase in reducing power at 20 to 60 ug/mL; type: functional
[33] = system: Rattus norvegicus; assay: Wound healing activity in Wistar albino rat dorsal back excision wound model applied topically as cream base ointment over 100/500 mm'2 scar measured after 18 days; type: functional
[34] = system: Rattus norvegicus; assay: Wound healing activity in Wistar albino rat dorsal back excision wound model applied topically as 1 %W/W gel base ointment measured after 18 days; type: functional
[35] = system: Nucleic Acid; assay: Intrinsic binding affinity to DNA by absorption spectral analysis; type: nucleic-acid assay
[36] = Antioxidant activity assessed as hydrogen peroxide scavenging activity by spectrophotometry; type: functional
[37] = system: Nucleic Acid; assay: Binding affinity to DNA assessed as reduction of Uv-vis spectra absorption at 312 nm wavelength at 0.5 uM by DNA intercalation assay; type: nucleic-acid assay; parameters: scale not given: the % may be the effect or the level left
[38] = system: Rattus norvegicus; assay: Wound healing activity in Wistar albino rat dorsal back excision wound model assessed as wound closure applied topically as 1 %W/W gel base ointment measured after 4 days; type: functional
[39] = system: Rattus norvegicus; assay: Wound healing activity in Wistar albino rat dorsal back excision wound model assessed as wound closure applied topically as 1 %W/W gel base ointment measured after 8 days; type: functional
[40] = system: Rattus norvegicus; assay: Wound healing activity in Wistar albino rat dorsal back excision wound model assessed as wound closure applied topically as 1 %W/W gel base ointment measured after 12 days; type: functional, organism-based
[41] = system: Rattus norvegicus; assay: Wound healing activity in Wistar albino rat dorsal back excision wound model assessed as wound closure applied topically as 1 %W/W gel base ointment measured after 16 days; type: functional

SMILES | Activity [1] | Activity [2] | Activity [3] | MIC [4] | MIC [5] | MIC [6] | MIC [7] | MIC [8] | Activity [15] | Activity [16] | Activity [17] | Activity [18] | Activity [19] | Activity [20] | MIC [21] | zone of inhibition at 10000 µg/mL [22] | zone of inhibition at 10000 µg/mL [23] | zone of inhibition at 10000 µg/mL [24] | zone of inhibition at 10000 µg/mL [25] | zone of inhibition at 10000 µg/mL [26] | other results
COc1ccc(O)c(C(C)(C)C)c1.COc1ccc(O)cc1C(C)(C)C | 81% | Active | 64% |  |  |  |  |  |  |  |  |  |  |  |  |  |  |  |  |  | 
O=C(O)c1cn(C2CC2)c2cc(N3CCNCC3)c(F)cc2c1=O [CIPROFLOXACIN] |  |  |  | 12.5 µg/mL (≈ 37.7 µM) | 6.5 µg/mL (≈ 19.6 µM) | 6.75 µg/mL (≈ 20.4 µM) | 6.25 µg/mL (≈ 18.9 µM) | 12.5 µg/mL (≈ 37.7 µM) |  |  |  |  |  |  |  |  |  |  |  |  | zone of inhibition at 10 µg/mL [9]: 19.2 mm; zone of inhibition at 10 µg/mL [10]: 23.3 mm; zone of inhibition at 10 µg/mL [11]: 20.1 mm; zone of inhibition at 10 µg/mL [12]: 21.4 mm; zone of inhibition at 10 µg/mL [13]: 20.8 mm; zone of inhibition at 10 µg/mL [14]: 21.3 mm
O=Cc1cc2ccc3ccccc3c2nc1S | 65% | 68% | 55% | 12.5 µg/mL (≈ 52.2 µM) | 32 µg/mL (≈ 134 µM) | 11 µg/mL (≈ 46 µM) | 12.5 µg/mL (≈ 52.2 µM) | 16.2 µg/mL (≈ 67.9 µM) | 45.35% | 75.63% | 85.94% | 96.24% | 18 days | 544.83 g | 16 µg/mL (≈ 66.9 µM) | 11.6 mm | 13.6 mm | 12.3 mm | 19.4 mm | 17.4 mm | zone of inhibition at 10000 µg/mL [27]: 15.2 mm; Activity [28]: 20.3%; Activity [29]: 20.5%; Tm [30]: 60 °C; Activity [31]: Active; Activity [32]: Active; Activity [33]: 100%; Activity [34]: 95.71%; Kb [35]: 2.7 ×10⁵ /M; Activity [36]: Dose-dependent effect
Cc1cc(C(C)(C)C)c(O)c(C(C)(C)C)c1 | 51% | Active | 48% |  |  |  |  |  |  |  |  |  |  |  |  |  |  |  |  |  | 
O=Cc1cc2ccc3ccccc3c2nc1[SeH] | 76% | 74% | 61% | 25 µg/mL (≈ 87.4 µM) | 25 µg/mL (≈ 87.4 µM) | 8 µg/mL (≈ 28 µM) | 12.5 µg/mL (≈ 43.7 µM) | 16.2 µg/mL (≈ 56.8 µM) | 53.65% | 85.26% | 95.7% | 100% | 16 days | 582.33 g | 16 µg/mL (≈ 55.9 µM) | 12.2 mm | 14.5 mm | 17.2 mm | 22.8 mm | 19.5 mm | zone of inhibition at 10000 µg/mL [27]: 20.6 mm; Activity [37]: 18.2%; Activity [29]: 25.1%; Tm [30]: 58 °C; Activity [31]: Active; Activity [32]: Active; Kb [35]: 3.8 ×10⁶ /M; Activity [36]: Dose-dependent effect
NC(=O)N/N=C/c1ccc([N+](=O)[O-])o1 [NITROFURAZONE] |  |  |  |  |  |  |  |  |  |  |  |  | 14 days | 599 g |  |  |  |  |  |  | Activity [38]: 55.68%; Activity [39]: 87.21%; Activity [40]: 97.68%; Activity [41]: 100%

From ChEMBL document CHEMBL1138566, “Synthesis of novel benzo[h]quinolines: wound healing, antibacterial, DNA binding and in vitro antioxidant activity” (Eur J Med Chem, 2009)
